The record followed here is ChEMBL document CHEMBL1201862, “PubChem BioAssay data set” (2004).

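The compound was tested at five concentrations on cells cultured in 96-well plates, with a 48-hour exposure period. GI50 = concentration required for 50% inhibition of growth.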 Calls of active or inactive are those of the source. Rule as the data show it: active = GI50 up to about 1.1 µM and inactive = higher.

Some test systems named below: NCI-H23; HCT-15; CAKI-1; RXF 393; SNB-75; MOLT-4; UACC-62; K562; CCRF-CEM; UO-31; SN12C; TK-10; A549; SK-OV-3; NCI-H522; Malme-3M; HCT-116; OVCAR-4; NCI-H226.
Holding throughout (test): inhibition of tumour cell growth, NCI panel, 48 h

Consider `COc1ccc(/C=C/C(=O)c2sc(Nc3ccc([N+](=O)[O-])cc3)nc2C)cc1`, for which the GI50 in the assay on NCI-H23 was 26.5 µM (inactive); with HCT-15 it was 34.4 µM; in the assay on CAKI-1, 40.2 µM (inactive); with RXF 393, 23.1 µM (inactive); in the assay with SNB-75, 43.5 µM (inactive); with MOLT-4 it was 17.7 µM (inactive). Besides, the GI50 in the assay with UACC-62 was 29.9 µM (inactive); with K562 it was 22.1 µM (inactive); in the assay with CCRF-CEM it was 25.6 µM (inactive); with UO-31, 25.4 µM (inactive); in the assay with SN12C it was 50.2 µM (inactive); with TK-10, 45.2 µM (inactive). Moreover, the GI50 is 33 µM (inactive) in the assay with A549, > 100 µM (inactive) in the assay with SK-OV-3, 18.2 µM (inactive) with NCI-H522 and 47 µM (inactive) with Malme-3M.

For the compound `CNc1nc(N)nc(Nc2ccc(I)cc2)c1N=O`, the GI50 was > 100 µM (inactive) in the assay on NCI-H23; above 100 µM with HCT-15; 57.4 µM (inactive) in the assay on RXF 393; > 100 µM (inactive) with SNB-75; 78.5 µM (inactive) with MOLT-4; 48 µM (inactive) in the assay with UACC-62. Besides, the GI50 is 68.2 µM (inactive) in the assay on K562; > 100 µM (inactive) in the assay with CCRF-CEM; 27 µM (inactive) in the assay with UO-31; > 100 µM (inactive) in the assay with SN12C; > 100 µM (inactive) with TK-10; > 100 µM (inactive) in the assay with HCT-116. For the same compound, the GI50 is > 100 µM (inactive) in the assay with A549, 40 µM (inactive) in the assay with NCI-H522 and > 100 µM (inactive) with Malme-3M.

`CN1/C(=C/C(=O)c2ccc(Cl)cc2)Nc2ccccc21`: the GI50 was 43.7 µM (inactive) with NCI-H23; 45.9 µM with HCT-15; 20 µM (inactive) with CAKI-1; > 100 µM (inactive) with RXF 393; 77.6 µM (inactive) with OVCAR-4; > 100 µM (inactive) in the assay on SNB-75. Also, the GI50 is 22.6 µM (inactive) in the assay on MOLT-4; 44.3 µM (inactive) in the assay with UACC-62; 35.9 µM (inactive) with K562; 34.8 µM (inactive) in the assay on CCRF-CEM; 13.2 µM (inactive) in the assay on UO-31; 60.4 µM (inactive) with SN12C. Moreover, the GI50 is 45.7 µM (inactive) in the assay with HCT-116; 25.9 µM (inactive) in the assay on A549; 19.1 µM (inactive) in the assay with NCI-H522; 13.6 µM (inactive) in the assay on NCI-H226; > 100 µM (inactive) in the assay on Malme-3M.

Regarding `O=S(=O)(O)c1ccc(/N=N/c2nc(C(F)(F)F)c(C(F)(F)F)[nH]2)cc1`, the GI50 with NCI-H23 was 24.2 µM (inactive); with HCT-15, 31.4 µM; in the assay on CAKI-1, 29.2 µM (inactive); with RXF 393, 18.4 µM (inactive); in the assay with OVCAR-4, 21.6 µM (inactive); in the assay with SNB-75 it was 75.9 µM (inactive). The GI50 with MOLT-4 was 24.2 µM (inactive); in the assay on UACC-62, 28.4 µM (inactive); with K562 it was 53.8 µM (inactive); with CCRF-CEM, 45.4 µM (inactive); in the assay on UO-31 it was 34 µM (inactive); in the assay on SN12C it was 66.5 µM (inactive). In addition, the GI50 with TK-10 is > 100 µM (inactive); in the assay with HCT-116, 37.7 µM (inactive); in the assay with A549 it was 61.8 µM (inactive); with SK-OV-3, > 100 µM (inactive); with NCI-H226 it was 31.5 µM (inactive); with Malme-3M it was 29.2 µM (inactive).

For the compound `COc1ccc(/C(=N/NC(=O)NN)C(c2ccc(OC)cc2)C2(O)CNc3c(Cl)cc(Cl)cc32)cc1` (stereo not given), the GI50 was > 100 µM (inactive) with NCI-H23; above 100 µM with HCT-15; > 100 µM (inactive) in the assay with RXF 393; > 100 µM (inactive) in the assay with OVCAR-4; > 100 µM (inactive) in the assay on SNB-75; 44.7 µM (inactive) in the assay on MOLT-4. The GI50 was 99.1 µM (inactive) in the assay with UACC-62; > 100 µM (inactive) in the assay on K562; 88.9 µM (inactive) in the assay with CCRF-CEM; > 100 µM (inactive) with UO-31; > 100 µM (inactive) with SN12C; > 100 µM (inactive) with TK-10. Also, the GI50 in the assay with HCT-116 was 50.9 µM (inactive); in the assay with A549, > 100 µM (inactive); with SK-OV-3, 81.8 µM (inactive); in the assay with NCI-H522 it was > 100 µM (inactive); with NCI-H226, > 100 µM (inactive); in the assay with Malme-3M, > 100 µM (inactive).

As for `COc1cccc(OC)c1/C=N\N1C(=O)c2ccccc2C1=O`, the GI50 in the assay on NCI-H23 was 38.5 µM (inactive); with HCT-15 it was 32.1 µM; with CAKI-1 it was 38.5 µM (inactive); in the assay with RXF 393, 26.7 µM (inactive); in the assay on OVCAR-4, 49 µM (inactive); in the assay with SNB-75 it was 38.5 µM (inactive). In addition, the GI50 was 40.6 µM (inactive) in the assay with MOLT-4; 34.6 µM (inactive) in the assay with UACC-62; 39.1 µM (inactive) in the assay on K562; 33.6 µM (inactive) with CCRF-CEM; 55.2 µM (inactive) in the assay on UO-31; 57.1 µM (inactive) with SN12C. In addition, the GI50 with TK-10 is 57.7 µM (inactive); in the assay with HCT-116 it was 33.5 µM (inactive); with A549, > 100 µM (inactive); in the assay on NCI-H226, > 100 µM (inactive); in the assay with Malme-3M, 60 µM (inactive).

For `CSc1nc(NC2OCC(OC(C)=O)C(OC(C)=O)C2OC(C)=O)c(/N=C\C=N\c2c(NC3OCC(OC(C)=O)C(OC(C)=O)C3OC(C)=O)nc(SC)n(C)c2=O)c(=O)n1C` (stereo not given), the GI50 in the assay with NCI-H23 was > 100 µM (inactive); in the assay with HCT-15, above 100 µM; in the assay on RXF 393 it was > 100 µM (inactive); with OVCAR-4, > 100 µM (inactive); with SNB-75, > 100 µM (inactive); in the assay on UACC-62 it was > 100 µM (inactive). The GI50 with K562, in the assay with UO-31, with SN12C, with TK-10, in the assay on HCT-116 and with A549 was > 100 µM (inactive) throughout. In addition, the GI50 in the assay on SK-OV-3, in the assay with NCI-H522 and in the assay with Malme-3M was > 100 µM (inactive) throughout.

Take `COc1cc(/C=C/c2ccc(OC(C)=O)cc2)cc(OC)c1OC`: the GI50 was 27.8 µM in the assay on HCT-15; 27.9 µM (inactive) in the assay with CAKI-1; 11.1 µM (inactive) in the assay on RXF 393; 22.8 µM (inactive) in the assay on OVCAR-4; 16.7 µM (inactive) in the assay with MOLT-4; 15.4 µM (inactive) with UACC-62. The GI50 in the assay on K562 was 27.1 µM (inactive); in the assay with CCRF-CEM, 11.6 µM (inactive); in the assay with UO-31, 21.1 µM (inactive); in the assay with SN12C, 42 µM (inactive); in the assay with TK-10, 31.9 µM (inactive); in the assay with HCT-116 it was 26.9 µM (inactive). Further, the GI50 in the assay on A549 was 26.1 µM (inactive); in the assay with NCI-H522 it was 17.9 µM (inactive); with NCI-H226 it was 35.8 µM (inactive); in the assay on Malme-3M it was 26 µM (inactive).

For the compound `COc1cc(/C=C\c2ccccc2)cc(OC)c1OC`, the GI50 is 4.13 µM (inactive) with NCI-H23; 2.6 µM in the assay on HCT-15; 4.36 µM (inactive) in the assay with CAKI-1; 1.84 µM (inactive) with RXF 393; 6.46 µM (inactive) with OVCAR-4; 2.1 µM (inactive) with SNB-75. The GI50 in the assay on MOLT-4 is 3.7 µM (inactive); in the assay on UACC-62 it was 2.49 µM (inactive); in the assay on K562, 0.514 µM (active); in the assay with CCRF-CEM it was 2.99 µM (inactive); in the assay on UO-31, 4.46 µM (inactive); in the assay with SN12C it was 5 µM (inactive). Further, the GI50 was 3.94 µM (inactive) with TK-10; 4.78 µM (inactive) with HCT-116; 5.28 µM (inactive) in the assay on A549; 2.67 µM (inactive) in the assay with NCI-H522; 4.2 µM (inactive) with NCI-H226; 2.95 µM (inactive) with Malme-3M.
